These results are taken from article PMC9929129, “Towards Translation of PqsR Inverse Agonists: From In Vitro Efficacy Optimization to In Vivo Proof‐of‐Principle” (Advanced Science, 2023).

≈ marks a conversion by molar mass, not a printed value. Read-outs that look alike come from different tables or passages of the source.

Data set [1] concerns Bronchiectasis clinical isolates, PA14 and PAO1. As to the kind of experiment: Antimicrobial minimal inhibitory concentrations (MIC), microdilution.
For data set [2], the system named is Pseudomonas aeruginosa PA14. On the set-up: method as in PMID 31709767. The conditions noted are these: previously published hit; read-out: IC50 Pyocyanin; cited from earlier work.
In another data set the target is T1, PqsR (Pseudomonas aeruginosa, UniProt Q9I4X0).
T1 construct: expressed in transfected cells; host or cells: Escherichia coli DH5α with plasmid pEAL08-2
T1 sequence (Q9I4X0 whole entry): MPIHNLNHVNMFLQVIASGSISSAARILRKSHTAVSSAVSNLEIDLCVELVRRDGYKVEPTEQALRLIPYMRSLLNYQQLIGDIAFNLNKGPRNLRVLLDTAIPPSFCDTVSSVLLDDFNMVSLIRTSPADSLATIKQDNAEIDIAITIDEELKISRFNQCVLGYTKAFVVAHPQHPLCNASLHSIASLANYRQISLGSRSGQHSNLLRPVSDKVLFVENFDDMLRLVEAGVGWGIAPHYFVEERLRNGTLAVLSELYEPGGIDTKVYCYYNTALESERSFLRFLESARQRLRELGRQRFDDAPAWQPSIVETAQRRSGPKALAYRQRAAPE
Conditions: cited from earlier work.

In data set [3] the test system is Pseudomonas aeruginosa PA14. As to the kind of experiment: Pyocyanin assay in Pseudomonas aeruginosa. The data set is classed as cell-based. Conditions: PA14, 16 h, read-out: IC50 Pyocyanin. As to the method: 1.2.2 Pyocyanin assay in Pseudomonas aeruginosa
Inhibition of pyocyanin biosynthesis of compounds was measured spectrophotometrically as previously described.[2] Pseudomonas aeruginosa PA14 was grown in rich medium for 16 h under agitation with and without compound. Pyocyanin was extracted from cultures with chloroform, then re-extracted with 0.2 M HCl and quantified photometrically (520 nm). IC50 values were determined from dose-response curves of compounds using at least six different concentrations and fitting with non-linear regression analysis (OriginPro 2017–2020, Originlab Corporation). […]

Data set [4] in a line: Metabolic stability in mouse liver microsomes (MLM).
Protocol: 1.3.2 Metabolic-Stability Tests in Mouse Liver Microsomes (MLM).
Phase I metabolic stability was evaluated by incubating the compound (1 μM) with 0.5 mg/mL MLM (Corning) and 1 mM NADPH at 37 °C for 0, 5, 10, 15 and 30 min. The enzymatic activity of the MLM was determined by measuring the metabolic stability of Verapamil, Diphenhydramine and Benzydamine (1 μM each).
The half-life (t1/2) was determined by analyzing the concentrations of the compounds at the different time points by HPLC-MS/MS.
A short description of data set [5]: Kinetic turbidimetric aqueous solubility. The conditions noted are these: PBS buffer, kinetic from dmso stock.
[6] abbreviates: strain column 1 of 16 (strain heads not assignable).

In the case of `CC(C)(O/N=C(\C(=O)N[C@@H]1C(=O)N2C(C(=O)[O-])=C(C[n+]3ccccc3)CS[C@H]12)c1csc(N)n1)C(=O)O` [Ceftazidim], the MIC in data set [1] (setting [6]) is given as 2 µg/mL (≈ 3.66 µM); in data set [1] (strain column 2 of 16) it was 4 µg/mL (≈ 7.32 µM); in data set [1] (strain column 3 of 16), 2 µg/mL (≈ 3.66 µM); in data set [1] (strain column 4 of 16), not above 0.5 µg/mL; in data set [1] (strain column 5 of 16), 2 µg/mL (≈ 3.66 µM); in data set [1] (strain column 6 of 16), 1 µg/mL (≈ 1.83 µM). For the same compound, the minimal inhibitory concentration (MIC) is listed as not above 0.5 µg/mL in data set [1] (strain column 7 of 16); 4 µg/mL (≈ 7.32 µM) in data set [1] (strain column 8 of 16); not above 0.5 µg/mL in data set [1] (strain column 9 of 16); 16 µg/mL (≈ 29.3 µM) in data set [1] (strain column 10 of 16); not above 0.5 µg/mL in data set [1] (strain column 11 of 16); 2 µg/mL (≈ 3.66 µM) in data set [1] (strain column 12 of 16). Moreover, the MIC is not above 0.5 µg/mL in data set [1] (strain column 13 of 16), 4 µg/mL (≈ 7.32 µM) in data set [1] (strain column 14 of 16), 4 µg/mL (≈ 7.32 µM) in data set [1] (strain column 15 of 16) and 2 µg/mL (≈ 3.66 µM) in data set [1] (strain column 16 of 16).

Consider `Nc1cc(NCc2ccc(F)cc2)cc(C(F)(F)F)n1` [Compound 1], for which the IC50 is 107000 nM in data set [2]; 2310 nM on PqsR (read-out: IC50 PqsR, previously published hit); 2300 nM at PqsR (read-out: IC50 toward PqsR in heterologous lacZ reporter gene assay in E. coli).

Regarding `Fc1ccc(CNc2ccnc(C(F)(F)F)c2)cc1` [Compound 2], the IC50 in data set [3] worked out at 176000 ± 47400 nM. Besides, the half-life at 1 μM in data set [4] turned out to be 54 min. The compound further came in with a kinetic solubility at 5 min in data set [5] of more than 200 µM.

Consider `FC(F)(F)c1cc(NCc2ccc(Cl)cc2)ccn1` [Compound 3], for which the IC50 in data set [3] was 19000 ± 1200 nM. The compound also came in with a half-life at 1 μM in data set [4] of 44 min. The compound further registered a kinetic solubility at 5 min in data set [5] of more than 200 µM.

As to `FC(F)(F)c1cc(NCc2ccc(Br)cc2)ccn1` [Compound 4], the IC50 in data set [3] is 14400 ± 1600 nM. Further, in data set [4], the half-life at 1 μM stood at 61 min. This compound registered a kinetic solubility at 5 min in data set [5] of more than 200 µM.

Turning to `FC(F)(F)c1cc(NCc2cccc(Br)c2)ccn1` [Compound 5], the IC50 in data set [3] was 71400 ± 27200 nM. In data set [4], this compound showed a half-life at 1 μM of 20 min. The compound further returned a kinetic solubility at 5 min in data set [5] of more than 200 µM.

For the compound `FC(F)(F)c1cc(NCc2ccccc2Br)ccn1` [Compound 6], in data set [3], the IC50 worked out at 126000 ± 10600 nM. In data set [4], this compound came in with a half-life at 1 μM of 4 min. In data set [5], this compound gave a kinetic solubility at 5 min of more than 200 µM.

`FC(F)(F)c1cc(NCc2ccc(-c3ccc(Cl)cc3)cc2)ccn1` [Compound 7]: in data set [3], the IC50 came out at 449 ± 74 nM. Besides, the half-life at 1 μM in data set [4] is more than 40 min. Moreover, in data set [5], the kinetic solubility at 5 min stood at 10 µM (≈ 3.63 µg/mL).

For `FC(F)(F)c1cc(NCc2ccc(-c3ccc(Cl)cc3)nc2)ccn1` [Compound 8], in data set [3], the IC50 turned out to be 3300 ± 1300 nM. Further, in data set [4], the half-life at 1 μM amounted to 50 min. This compound also showed a kinetic solubility at 5 min in data set [5] of 38.9 µM (≈ 14.2 µg/mL).

Turning to `FC(F)(F)c1cc(NCc2ccc(-c3ccc(Cl)cc3)cn2)ccn1` [Compound 9], the IC50 in data set [3] amounted to 2900 ± 3900 nM. In data set [4], this compound returned a half-life at 1 μM of 57 min. Moreover, the solubility (kinetic) at 5 min in data set [5] came to 26.6 µM (≈ 9.68 µg/mL).

`FC(F)(F)c1cc(NCc2ccc(-c3ccc(Cl)cn3)cn2)ccn1` [Compound 10]: the IC50 in data set [3] turned out to be 35100 ± 27500 nM. In data set [4], the half-life at 1 μM is 75 min. The solubility (kinetic) at 5 min in data set [5] is more than 200 µM.

As for `FC(F)(F)c1cc(NCc2ccc(-c3ccc(Cl)nc3)cn2)ccn1` [Compound 11], the IC50 in data set [3] came to 7200 ± 4600 nM. Moreover, in data set [4], the half-life at 1 μM was more than 480 min. The solubility (kinetic) at 5 min in data set [5] was found to be 161 µM (≈ 58.6 µg/mL).

`FC(F)(F)c1cc(OCc2ccc(-c3ccc(Cl)nc3)cn2)ccn1` [Compound 12]: the IC50 in data set [3] was more than 20000 nM. Moreover, in data set [4], the half-life at 1 μM is 74 min. Besides, the kinetic solubility at 5 min in data set [5] is 48.1 µM (≈ 17.6 µg/mL).

Turning to `FC(F)(F)c1cc(SCc2ccc(-c3ccc(Cl)nc3)cn2)ccn1` [Compound 13], the IC50 in data set [3] was 3100 ± 900 nM. The compound further showed a half-life at 1 μM in data set [4] of 6 min. The solubility (kinetic) at 5 min in data set [5] was determined as 42.3 µM (≈ 16.2 µg/mL).

For the compound `COc1ccc(-c2ccc(CNc3ccnc(C(F)(F)F)c3)nc2)cn1` [Compound 14], the IC50 in data set [3] came to 2900 ± 800 nM. The compound also showed a half-life at 1 μM in data set [4] of 77 min. In addition, the kinetic solubility at 5 min in data set [5] is more than 200 µM.

On to `Cc1cc(-c2ccc(CNc3ccnc(C(F)(F)F)c3)nc2)cnc1Cl` [Compound 15], for which the IC50 in data set [3] came out at 1900 ± 300 nM. In data set [4], this compound returned a half-life at 1 μM of less than 5 min. This compound registered a solubility (kinetic) at 5 min in data set [5] of 112 µM (≈ 42.6 µg/mL).

Regarding `FC(F)(F)c1cc(NCc2ccc(-c3cnc(Cl)c(C(F)(F)F)c3)cn2)ccn1` [Compound 16], in data set [3], the IC50 amounted to 2100 ± 400 nM. Moreover, the half-life at 1 μM in data set [4] worked out at 384 min. Also, the kinetic solubility at 5 min in data set [5] was 101 µM (≈ 43.7 µg/mL).

For the compound `FC(F)(F)c1cc(NCc2ccc(-c3cnc(Cl)c(Cl)c3)cn2)ccn1` [Compound 17], the IC50 in data set [3] was found to be 802 ± 200 nM. In addition, the half-life at 1 μM in data set [4] came to 45 min. Moreover, the solubility (kinetic) at 5 min in data set [5] came out at 76.2 µM (≈ 30.4 µg/mL).

For `COc1ncc(-c2ccc(CNc3ccnc(C(F)(F)F)c3)nc2)cc1Cl` [Compound 18], the IC50 in data set [3] was determined as 1500 ± 200 nM. In data set [4], this compound came in with a half-life at 1 μM of 2 min. The compound also registered a solubility (kinetic) at 5 min in data set [5] of 42.4 µM (≈ 16.7 µg/mL).

For the compound `FC(F)(F)c1cc(NCc2ccc(-c3ccc(Oc4ccccc4)nc3)cn2)ccn1` [Compound 19], in data set [3], the IC50 stood at 4200 ± 1100 nM. The compound further came in with a half-life at 1 μM in data set [4] of 35 min. Further, the kinetic solubility at 5 min in data set [5] stood at 25.6 µM (≈ 10.8 µg/mL).

For the compound `FC(F)(F)c1cc(NCc2cnc(-c3ccc(Cl)c(Cl)c3)nc2)ccn1` [Compound 20], in data set [3], the IC50 came out at 234 ± 57 nM. This compound gave a half-life at 1 μM in data set [4] of 61 min. This compound also gave a kinetic solubility at 5 min in data set [5] of 16.6 µM (≈ 6.63 µg/mL).

For the compound `FC(F)(F)c1cc(NCc2cnc(-c3ccc(Oc4ccccc4)cc3)nc2)ccn1` [Compound 21], the half-maximal inhibitory concentration (IC50) in data set [3] was 320 ± 110 nM. In addition, the half-life at 1 μM in data set [4] was 32 min. The compound further came in with a solubility (kinetic) at 5 min in data set [5] of 10.9 µM (≈ 4.6 µg/mL).

Regarding `CC(C)Oc1ccc(-c2ncc(CNc3ccnc(C(F)(F)F)c3)cn2)cc1` [Compound 22], the IC50 in data set [3] is 521 ± 300 nM. The same compound showed a half-life at 1 μM in data set [4] of more than 85 min. This compound also yielded a solubility (kinetic) at 5 min in data set [5] of 41.7 µM (≈ 16.2 µg/mL).

As to `FC(F)(F)c1cc(NCc2cnc(-c3ccc(C4CC4)cc3)nc2)ccn1` [Compound 23], in data set [3], the IC50 was 591 ± 70 nM. In data set [4], the half-life at 1 μM amounted to 3 min. This compound gave a solubility (kinetic) at 5 min in data set [5] of 16.5 µM (≈ 6.11 µg/mL).

Regarding `CC(C)Oc1ncc(-c2ncc(CNc3ccnc(C(F)(F)F)c3)cn2)cc1Cl` [Compound 25], the concentration for half-maximal inhibition (IC50) in data set [3] came out at 523 ± 50 nM. This compound also showed a half-life at 1 μM in data set [4] of more than 480 min. In addition, the solubility (kinetic) at 5 min in data set [5] worked out at 37.9 µM (≈ 16.1 µg/mL).

For Colistin, the MIC in data set [1] (setting [6]) is 2 µg/mL; in data set [1] (strain column 2 of 16), 2 µg/mL; in data set [1] (strain column 3 of 16), 1 µg/mL; in data set [1] (strain column 4 of 16) it was not above 0.5 µg/mL; in data set [1] (strain column 5 of 16) it was 1 µg/mL; in data set [1] (strain column 6 of 16), 2 µg/mL. The MIC is recorded as 1 µg/mL in data set [1] (strain column 7 of 16); 2 µg/mL in data set [1] (strain column 8 of 16); 2 µg/mL in data set [1] (strain column 9 of 16); 1 µg/mL in data set [1] (strain column 10 of 16); 1 µg/mL in data set [1] (strain column 11 of 16); 2 µg/mL in data set [1] (strain column 12 of 16). Moreover, the MIC is 1 µg/mL in data set [1] (strain column 13 of 16), 1 µg/mL in data set [1] (strain column 14 of 16), 1 µg/mL in data set [1] (strain column 15 of 16) and 2 µg/mL in data set [1] (strain column 16 of 16).
